Read-outs that look alike come from different tables or passages of the source.
Assays:
[1] = no concentration stated
[2] = cited from earlier work

In the case of `COc1cc(Cc2cnc(N)nc2N)cc(OC)c1OC` [Trimethoprim], the “solubility in ethanol (qualitative)” value [1] is reported as “only slightly soluble”, the “solubility in propylene glycol (qualitative)” value [1] is reported as “soluble” and the “solubility in water (qualitative)” value [1] is reported as “almost completely insoluble”. The solubility ([2]; 95% Ethanol) was 0.81 g/100 mL, the solubility ([2]; Absolute Ethanol) was 0.35 g/100 mL and the solubility ([2]; Acetone) was 0.35 g/100 mL. For the same molecule, the solubility ([2]; Benzene) was 0.002 g/100 mL, the solubility ([2]; Benzyl Alcohol) was 7.29 g/100 mL and the solubility ([2]; Carbon Tetra-Chloride) was 0.002 g/100 mL. The solubility ([2]; Choroform) was 1.82 g/100 mL, the solubility ([2]; Diethyl Ether) was 0.00 g/100 mL and the solubility ([2]; Dimethyl Acetamide) was 13.86 g/100 mL. For the same molecule, the solubility ([2]; Methanol) was 1.21 g/100 mL, the solubility ([2]; Petroleum Ether) was 0.02 g/100 mL and the solubility ([2]; Propylene Glycol) was 2.57 g/100 mL. For the same molecule, the solubility ([2]; Water) was 0.04 g/100 mL.

From US10335518B2, “Catheter locking formulation and method to prepare same” (priority 2013, dated 2019)
